Tested on: Collagen I and Fibronectin
Experiment: Immuno-ECM: TGFβ-induced collagen I and fibronectin accumulation
Assay type: cell-based, human
Details: IPF patient-derived fibroblasts, TGFβ 48 hours then DHX 24 hours
Description: IPF patient-derived fibroblasts grown at confluence were pre-stimulated with 2 ng/mL TGFβ for 48 hours and then treated with DHX (10 μM)+2 ng/mL TGFβ for an additional 24 hours prior to fixation. Cell derived matrix is measured using antibodies for Collagen I and Fibronectin. […] Representative traction maps are shown from cells plated onto 6.4 kPa matrices treated with the indicated concentration of DHX. RMS tractions were determined in two independent experiments; box and whisker plots show min to max, quartile, and mean from one representative experiment (****p<0.0001, *p<0.05 vs. 0.1% DMSO vehicle control).
Immuno-ECM Adapting from previously published methods, IPF patient-derived fibroblasts were plated to confluence in clear-bottom 96-well plates. After cells attached, the medium was swapped for EMEM containing 0.10% FBS±2 ng/mL TGF-β. After 48 hours the indicated concentration of DHX or DMSO control was added to each well and incubated for 24 hours. WST-1 viability reagent was added to each well (Sigma-Aldrich) and measured on a Flexstation 3 (Molecular Devices) plate reader. […] Plates were imaged via a Li-Cor OdysseyXL system with quantification performed via densitometry. Data are expressed as IR intensity relative to WST-1 signal absorbance in order to account for any potential compound toxicity.

Oc1cc2c(cc1O)[C@H]1c3ccccc3CN[C@@H]1CC2 (racemic) [Dihydrexidine]
TGFβ-stimulated accumulation of collagen I and fibronectin: dose-dependently reversed

Source: patent publication US12264163B2, “Compounds and methods for treating fibrotic pathologies” (Mayo Foundation for Medical Education and Research, priority 2019, dated 2025)
